Data published in US6737383B1, “Herbicidal oxadiazolidines” (priority 1999, dated 2004).

Tests used:
pigweed = experiment: Test B pre/postemergence pigweed; format: in vivo, Amaranthus retroflexus
Procedure, shortened: (§1)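 Test chemicals in a non-phytotoxic solvent mixture with surfactant were sprayed preemergence onto planted seeds and postemergence onto plants 2 to 18 cm tall (1- to 4-leaf stage). After twelve to sixteen days in a greenhouse, injury was visually rated against untreated controls from 0 (no effect) to 10 (complete control).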

purple nutsedge = experiment: Test B pre/postemergence purple nutsedge; format: in vivo, Cyperus rotundus
Procedure, shortened: as §1

wild oat = experiment: Test B pre/postemergence wild oat; format: in vivo, Avena fatua
Procedure, shortened: as §1

rice = experiment: Test B flood test rice; format: in vivo, Oryza sativa
Procedure, shortened: (§2)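 Plants were grown to the 2-leaf stage before treatment with test chemical, then held in a greenhouse for twelve to sixteen days. Injury was visually rated against untreated controls on a 0–10 scale, where 0 is no effect and 10 is complete control.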

sugar beet = experiment: Test B pre/postemergence sugar beet; format: in vivo, Beta vulgaris
Procedure, shortened: as §1

wheat = experiment: Test B pre/postemergence wheat; format: in vivo, Triticum aestivum
Procedure, shortened: as §1

velvetleaf = experiment: Test B pre/postemergence velvetleaf; format: in vivo, Abutilon theophrasti
Procedure, shortened: as §1

smallflower flatsedge = experiment: Test B flood test smallflower flatsedge; format: in vivo, Cyperus difformis
Procedure, shortened: as §2

surinam grass = experiment: Test B pre/postemergence surinam grass; format: in vivo, Brachiaria decumbens
Procedure, shortened: as §1

crabgrass = experiment: Test B pre/postemergence crabgrass; format: in vivo, Digitaria sanguinalis
Procedure, shortened: as §1

corn = experiment: Test B pre/postemergence corn; format: in vivo, Zea mays
Procedure, shortened: as §1

bedstraw = experiment: Test B pre/postemergence bedstraw; format: in vivo, Galium aparine; settings: Preemergence
Procedure, shortened: as §1

soybean = experiment: Test B pre/postemergence soybean; format: in vivo, Glycine max
Procedure, shortened: as §1

rape = experiment: Test B pre/postemergence rape; format: in vivo, Brassica napus
Procedure, shortened: as §1

blackgrass = experiment: Test B pre/postemergence blackgrass; format: in vivo, Alopecurus myosuroides
Procedure, shortened: as §1

duck salad = experiment: Test B flood test duck salad; format: in vivo, Heteranthera limosa
Procedure, shortened: as §2

[1] = Postemergence, Rate 250 g/ha, scale 0 to 10, 0 is no effect, 10 is complete control
[2] = Postemergence, Rate 500 g/ha, scale of 0 to 10 where 0 is no effect and 10 is complete control
[3] = Preemergence, Rate 62 g/ha, scale 0 to 10 (0 no effect, 10 complete control)
[4] = Preemergence, Rate 125 g/ha, scale of 0 to 10 where 0 is no effect and 10 is complete control
[5] = Preemergence, Rate 250 g/ha, scale 0 to 10, 0 is no effect, 10 is complete control
[6] = Preemergence, Rate 500 g/ha, scale 0 to 10, 0 is no effect, 10 is complete control
[7] = Rate 62 g/ha, flood test species, Pre-emergence, visual evaluation after twelve to sixteen days
[8] = Rate 125 g/ha, under heading Pre-emergence, flood test species, visual evaluation after twelve to sixteen days
[9] = Rate 250 g/ha, Pre-emergence, flood-test species, scale 0 to 10, 0 is no effect, 10 is complete control
[10] = Rate 500 g/ha, Pre-emergence, flood test species, scale 0 to 10 (0 no effect, 10 complete control)
[11] = Postemergence, Rate 125 g/ha, scale 0 to 10, 0 is no effect, 10 is complete control
[12] = Preemergence, Rate 250 g/ha, scale of 0 to 10 where 0 is no effect and 10 is complete control
[13] = Rate 62 g/ha, Postemergence, scale of 0 to 10 where 0 is no effect and 10 is complete control

SMILES: Cc1nc(Cl)sc1C(C)n1c(=O)on(C(=O)N(c2ccc(Cl)cc2)C(C)C)c1=O (stereo not drawn) [Compound 406]
- Plant response rating, Redroot pigweed (pigweed; [1]): 0
- Redroot pigweed plant response rating (pigweed; [2]): 0
- Plant response rating, Redroot pigweed (pigweed; [3]): 0
- Plant response rating, Redroot pigweed (pigweed; [4]): 0
- Redroot pigweed plant response rating (pigweed; [5]): 0
- Redroot pigweed plant response rating (pigweed; [6]): 0
- Plant response rating, Nutsedge (purple nutsedge; [1]): 0
- Nutsedge plant response rating (purple nutsedge; [2]): 0
- Plant response rating, Nutsedge (purple nutsedge; [3]): 0
- Plant response rating, Nutsedge (purple nutsedge; [4]): 0
- Nutsedge plant response rating (purple nutsedge; [5]): 0
- Nutsedge plant response rating (purple nutsedge; [6]): 0
- Wild oats plant response rating (wild oat; [2]): 0
- Plant response rating, Wild oats (wild oat; [3]): 0
- Plant response rating, Wild oats (wild oat; [4]): 0
- Wild oats plant response rating (wild oat; [5]): 0
- Wild oats plant response rating (wild oat; [6]): 0
- Plant response rating, Rice (0 to 10 scale, 0 is no effect, 10 is complete control) (rice; [7]): 0
- Rice plant response rating (0 to 10 scale, 0 is no effect, 10 is complete control) (rice; [8]): 0
- Rice plant response rating (rice; [9]): 0
- Rice plant response rating (rice; [10]): 0
- Plant response rating, Sugarbeets (sugar beet; [1]): 0
- Sugarbeets plant response rating (sugar beet; [2]): 0
- Plant response rating, Sugarbeets (sugar beet; [3]): 0
- Plant response rating, Sugarbeets (sugar beet; [4]): 0
- Sugarbeets plant response rating (sugar beet; [5]): 0
- Sugarbeets plant response rating (sugar beet; [6]): 0
- Wheat plant response rating (wheat; [2]): 0
- Plant response rating, Wheat (wheat; [3]): 0
- Plant response rating, Wheat (wheat; [4]): 0
- Wheat plant response rating (wheat; [5]): 0
- Wheat plant response rating (wheat; [6]): 0
- Plant response rating, Velvetleaf (velvetleaf; [1]): 0
- Velvetleaf plant response rating (velvetleaf; [2]): 0
- Plant response rating, Velvetleaf (velvetleaf; [3]): 0
- Plant response rating, Velvetleaf (velvetleaf; [4]): 0
- Velvetleaf plant response rating (velvetleaf; [5]): 0
- Velvetleaf plant response rating (velvetleaf; [6]): 0
- Plant response rating, S. Flatsedge (0 to 10 scale, 0 is no effect, 10 is complete control) (smallflower flatsedge; [7]): 0
- S. Flatsedge plant response rating (0 to 10 scale, 0 is no effect, 10 is complete control) (smallflower flatsedge; [8]): 0
- S. Flatsedge plant response rating (smallflower flatsedge; [9]): 0
- S. Flatsedge plant response rating (smallflower flatsedge; [10]): 0
- Plant response rating, B. signalgrass (surinam grass; [11]): 0
- Plant response rating, B. signalgrass (surinam grass; [1]): 0
- B. signalgrass plant response rating (surinam grass; [2]): 0
- Plant response rating, B. signalgrass (surinam grass; [3]): 0
- Plant response rating, B. signalgrass (surinam grass; [4]): 0
- B. signalgrass plant response rating (surinam grass; [12]): 0
- B. signalgrass plant response rating (surinam grass; Preemergence, Rate 500 g/ha, scale of 0 to 10 where 0 is no effect and 10 is complete control): 0
- B. signalgrass plant response rating (surinam grass; [13]): 0
- Plant response rating, Crabgrass (crabgrass; [11]): 0
- Plant response rating, Crabgrass (crabgrass; [1]): 0
- Crabgrass plant response rating (crabgrass; [2]): 0
- Plant response rating, Crabgrass (crabgrass; [3]): 0
- Plant response rating, Crabgrass (crabgrass; [4]): 0
- Crabgrass plant response rating (crabgrass; [5]): 2
- Crabgrass plant response rating (crabgrass; [6]): 6
- Crabgrass plant response rating (crabgrass; [13]): 0
- Plant response rating, Corn (corn; [11]): 0
- Plant response rating, Corn (corn; [1]): 0
- Corn plant response rating (corn; [2]): 0
- Plant response rating, Corn (corn; [3]): 0
- Plant response rating, Corn (corn; [4]): 0
- Corn plant response rating (corn; [5]): 0
- Corn plant response rating (corn; [6]): 0
- Corn plant response rating (corn; [13]): 0
- Plant response rating, Bedstraw (bedstraw; Rate 62 g/ha, scale 0 to 10 (0 no effect, 10 complete control)): 0
- Plant response rating, Bedstraw (bedstraw; Rate 125 g/ha, scale of 0 to 10 where 0 is no effect and 10 is complete control): 0
- Bedstraw plant response rating (bedstraw; Rate 250 g/ha, scale of 0 to 10 where 0 is no effect and 10 is complete control): 0
- Plant response rating, Soybean (soybean; [1]): 2
- Soybean plant response rating (soybean; [2]): 2
- Plant response rating, Soybean (soybean; [3]): 0
- Plant response rating, Soybean (soybean; [4]): 0
- Soybean plant response rating (soybean; [5]): 0
- Soybean plant response rating (soybean; [6]): 0
- Plant response rating, Rape (rape; [1]): 0
- Rape plant response rating (rape; [2]): 0
- Plant response rating, Rape (rape; [3]): 0
- Plant response rating, Rape (rape; [4]): 0
- Rape plant response rating (rape; [5]): 0
- Rape plant response rating (rape; [6]): 0
- Plant response rating, Blackgrass (blackgrass; [11]): 0
- Plant response rating, Blackgrass (blackgrass; [1]): 0
- Blackgrass plant response rating (blackgrass; [2]): 0
- Plant response rating, Blackgrass (blackgrass; [3]): 0
- Plant response rating, Blackgrass (blackgrass; [4]): 0
- Blackgrass plant response rating (blackgrass; [12]): 0
- Blackgrass plant response rating (blackgrass; [6]): 0
- Blackgrass plant response rating (blackgrass; [13]): 0
- Plant response rating, Ducksalad (0 to 10 scale, 0 is no effect, 10 is complete control) (duck salad; [7]): 0
- Ducksalad plant response rating (0 to 10 scale, 0 is no effect, 10 is complete control) (duck salad; [8]): 0
- Ducksalad plant response rating (duck salad; [9]): 0
- Ducksalad plant response rating (duck salad; [10]): 0
